In PubChem BioAssay (NCI):
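Results reflect a 48-hour exposure of cells in 96-well plates to compound at five concentrations. Definition used: TGI = concentration required for complete inhibition of growth.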

Legend:
Assay in all cases: inhibition of tumour cell growth, NCI panel, 48 h
HCC-2998 colon = tested on: HCC-2998 colon
SK-MEL-2 melanoma = tested on: SK-MEL-2 melanoma
TK-10 renal = tested on: TK-10 renal
A498 renal = tested on: A498 renal
MDA-MB-435 = tested on: MDA-MB-435
SK-MEL-28 melanoma = tested on: SK-MEL-28 melanoma
RXF 393 renal = tested on: RXF 393 renal
DU-145 prostate = tested on: DU-145 prostate
SNB-75 CNS = tested on: SNB-75 CNS
786-0 renal = tested on: 786-0 renal
SF-268 CNS = tested on: SF-268 CNS
NCI/ADR-RES ovarian = tested on: NCI/ADR-RES ovarian
ACHN renal = tested on: ACHN renal
LOX IMVI melanoma = tested on: LOX IMVI melanoma
SNB-19 CNS = tested on: SNB-19 CNS
CAKI-1 renal = tested on: CAKI-1 renal
MCF7 breast = tested on: MCF7 breast
UACC-62 melanoma = tested on: UACC-62 melanoma
HCT-15 colon = tested on: HCT-15 colon
HOP-62 NSCLC = tested on: HOP-62 NSCLC
NCI-H226 lung = tested on: NCI-H226 lung
HCT-116 colon = tested on: HCT-116 colon
UACC-257 melanoma = tested on: UACC-257 melanoma
MDA-N = tested on: MDA-N
MDA-MB-231 breast = tested on: MDA-MB-231 breast
COLO 205 colon = tested on: COLO 205 colon
MOLT-4 leukemia = tested on: MOLT-4 leukemia
MALME-3M melanoma = tested on: MALME-3M melanoma
HS 578T breast = tested on: HS 578T breast
HT29 colon = tested on: HT29 colon
IGROV1 ovarian = tested on: IGROV1 ovarian
SW-620 colon = tested on: SW-620 colon
SN12C renal = tested on: SN12C renal
NCI-H460 lung = tested on: NCI-H460 lung
SF-295 CNS = tested on: SF-295 CNS
NCI-H522 lung = tested on: NCI-H522 lung
BT-549 breast = tested on: BT-549 breast
NCI-H23 lung = tested on: NCI-H23 lung
UO-31 renal = tested on: UO-31 renal
OVCAR-8 ovarian = tested on: OVCAR-8 ovarian
K-562 leukemia = tested on: K-562 leukemia
SK-MEL-5 melanoma = tested on: SK-MEL-5 melanoma
OVCAR-5 ovarian = tested on: OVCAR-5 ovarian
HL-60(TB) leukemia = tested on: HL-60(TB) leukemia
PC-3 prostate = tested on: PC-3 prostate
OVCAR-4 ovarian = tested on: OVCAR-4 ovarian
KM12 colon = tested on: KM12 colon
OVCAR-3 ovarian = tested on: OVCAR-3 ovarian
U251 CNS = tested on: U251 CNS
EKVX NSCLC = tested on: EKVX NSCLC
RPMI-8226 leukemia = tested on: RPMI-8226 leukemia
M14 melanoma = tested on: M14 melanoma
SF-539 CNS = tested on: SF-539 CNS
CCRF-CEM leukemia = tested on: CCRF-CEM leukemia
HOP-92 NSCLC = tested on: HOP-92 NSCLC
A549 NSCLC = tested on: A549 NSCLC
T-47D breast = tested on: T-47D breast
SK-OV-3 ovarian = tested on: SK-OV-3 ovarian
SR leukemia = tested on: SR leukemia

NC1=NC(=O)[C@H](Cc2c[nH]c3ccccc23)N1C(=O)OCc1ccccc1
TGI (HCC-2998 colon): > 100 µM | TGI (SK-MEL-2 melanoma): > 100 µM | TGI (TK-10 renal): > 100 µM | TGI (A498 renal): > 100 µM | TGI (MDA-MB-435): > 100 µM | TGI (SK-MEL-28 melanoma): > 100 µM | TGI (RXF 393 renal): > 100 µM | TGI (DU-145 prostate): > 100 µM | TGI (SNB-75 CNS): > 100 µM | TGI (786-0 renal): > 100 µM | TGI (SF-268 CNS): > 100 µM | TGI (NCI/ADR-RES ovarian): > 100 µM | TGI (ACHN renal): > 100 µM | TGI (LOX IMVI melanoma): > 100 µM | TGI (SNB-19 CNS): > 100 µM | TGI (CAKI-1 renal): > 100 µM | TGI (MCF7 breast): > 100 µM | TGI (UACC-62 melanoma): > 100 µM | TGI (HCT-15 colon): > 100 µM | TGI (HOP-62 NSCLC): > 100 µM | TGI (NCI-H226 lung): > 100 µM | TGI (HCT-116 colon): > 100 µM | TGI (UACC-257 melanoma): > 100 µM | TGI (MDA-N): > 100 µM | TGI (MDA-MB-231 breast): > 100 µM | TGI (COLO 205 colon): > 100 µM | TGI (MOLT-4 leukemia): > 100 µM | TGI (MALME-3M melanoma): > 100 µM | TGI (HS 578T breast): > 100 µM | TGI (HT29 colon): > 100 µM | TGI (IGROV1 ovarian): > 100 µM | TGI (SW-620 colon): > 100 µM | TGI (SN12C renal): > 100 µM | TGI (NCI-H460 lung): > 100 µM | TGI (SF-295 CNS): > 100 µM | TGI (NCI-H522 lung): > 100 µM | TGI (BT-549 breast): > 100 µM | TGI (NCI-H23 lung): > 100 µM | TGI (UO-31 renal): > 100 µM | TGI (OVCAR-8 ovarian): > 100 µM | TGI (K-562 leukemia): > 100 µM | TGI (SK-MEL-5 melanoma): > 100 µM | TGI (OVCAR-5 ovarian): > 100 µM | TGI (HL-60(TB) leukemia): > 100 µM | TGI (PC-3 prostate): > 100 µM | TGI (OVCAR-4 ovarian): > 100 µM | TGI (KM12 colon): > 100 µM | TGI (OVCAR-3 ovarian): > 100 µM | TGI (U251 CNS): > 100 µM | TGI (EKVX NSCLC): > 100 µM

Cc1ccc(C(=O)N/N=C(\N=Nc2cccc([N+](=O)[O-])c2)c2ccc(N(C)C)cc2)cc1
TGI (HCC-2998 colon): > 100 µM | TGI (SK-MEL-2 melanoma): > 100 µM | TGI (RPMI-8226 leukemia): > 100 µM | TGI (TK-10 renal): > 100 µM | TGI (MDA-MB-435): > 100 µM | TGI (M14 melanoma): > 100 µM | TGI (SK-MEL-28 melanoma): > 100 µM | TGI (DU-145 prostate): 85.5 µM | TGI (786-0 renal): > 100 µM | TGI (SF-268 CNS): > 100 µM | TGI (NCI/ADR-RES ovarian): > 100 µM | TGI (SF-539 CNS): > 100 µM | TGI (LOX IMVI melanoma): > 100 µM | TGI (SNB-19 CNS): > 100 µM | TGI (CAKI-1 renal): > 100 µM | TGI (MCF7 breast): > 100 µM | TGI (HCT-15 colon): > 100 µM | TGI (NCI-H226 lung): > 100 µM | TGI (HCT-116 colon): > 100 µM | TGI (UACC-257 melanoma): > 100 µM | TGI (CCRF-CEM leukemia): > 100 µM | TGI (MDA-N): > 100 µM | TGI (MDA-MB-231 breast): > 100 µM | TGI (COLO 205 colon): > 100 µM | TGI (MOLT-4 leukemia): > 100 µM | TGI (HS 578T breast): > 100 µM | TGI (HT29 colon): > 100 µM | TGI (IGROV1 ovarian): > 100 µM | TGI (SW-620 colon): > 100 µM | TGI (SN12C renal): > 100 µM | TGI (NCI-H460 lung): > 100 µM | TGI (SF-295 CNS): > 100 µM | TGI (NCI-H522 lung): > 100 µM | TGI (HOP-92 NSCLC): > 100 µM | TGI (BT-549 breast): > 100 µM | TGI (NCI-H23 lung): > 100 µM | TGI (UO-31 renal): > 100 µM | TGI (OVCAR-8 ovarian): > 100 µM | TGI (K-562 leukemia): > 100 µM | TGI (SK-MEL-5 melanoma): > 100 µM | TGI (OVCAR-5 ovarian): > 100 µM | TGI (HL-60(TB) leukemia): > 100 µM | TGI (PC-3 prostate): > 100 µM | TGI (A549 NSCLC): > 100 µM | TGI (OVCAR-4 ovarian): > 100 µM | TGI (KM12 colon): > 100 µM | TGI (OVCAR-3 ovarian): > 100 µM | TGI (U251 CNS): > 100 µM | TGI (EKVX NSCLC): > 100 µM

O=C(/C=C/c1ccc2ccccc2c1)NCc1ccc(C(=O)NCc2ccccc2)cc1
TGI (HCC-2998 colon): > 100 µM | TGI (SK-MEL-2 melanoma): > 100 µM | TGI (RPMI-8226 leukemia): > 100 µM | TGI (TK-10 renal): > 100 µM | TGI (A498 renal): > 100 µM | TGI (MDA-MB-435): > 100 µM | TGI (M14 melanoma): > 100 µM | TGI (SK-MEL-28 melanoma): > 100 µM | TGI (RXF 393 renal): > 100 µM | TGI (DU-145 prostate): > 100 µM | TGI (SNB-75 CNS): 71.1 µM | TGI (786-0 renal): > 100 µM | TGI (SF-268 CNS): > 100 µM | TGI (NCI/ADR-RES ovarian): > 100 µM | TGI (SF-539 CNS): > 100 µM | TGI (ACHN renal): > 100 µM | TGI (LOX IMVI melanoma): > 100 µM | TGI (T-47D breast): > 89.6 µM | TGI (SNB-19 CNS): > 100 µM | TGI (CAKI-1 renal): > 73.1 µM | TGI (MCF7 breast): > 100 µM | TGI (UACC-62 melanoma): > 100 µM | TGI (HCT-15 colon): > 100 µM | TGI (HOP-62 NSCLC): 52.9 µM | TGI (NCI-H226 lung): 86.8 µM | TGI (SK-OV-3 ovarian): > 100 µM | TGI (HCT-116 colon): > 100 µM | TGI (UACC-257 melanoma): > 100 µM | TGI (CCRF-CEM leukemia): > 100 µM | TGI (MDA-MB-231 breast): > 100 µM | TGI (COLO 205 colon): > 100 µM | TGI (MOLT-4 leukemia): > 100 µM | TGI (MALME-3M melanoma): > 100 µM | TGI (HS 578T breast): > 100 µM | TGI (HT29 colon): > 100 µM | TGI (IGROV1 ovarian): > 100 µM | TGI (SR leukemia): > 100 µM | TGI (SW-620 colon): > 100 µM | TGI (SN12C renal): > 100 µM | TGI (NCI-H460 lung): > 100 µM | TGI (SF-295 CNS): > 100 µM | TGI (NCI-H522 lung): > 100 µM | TGI (HOP-92 NSCLC): > 100 µM | TGI (BT-549 breast): > 100 µM | TGI (NCI-H23 lung): > 100 µM | TGI (UO-31 renal): > 100 µM | TGI (OVCAR-8 ovarian): > 100 µM | TGI (K-562 leukemia): > 31.6 µM | TGI (SK-MEL-5 melanoma): > 100 µM | TGI (OVCAR-5 ovarian): > 100 µM | TGI (HL-60(TB) leukemia): 38.8 µM | TGI (PC-3 prostate): > 100 µM | TGI (A549 NSCLC): > 100 µM | TGI (OVCAR-4 ovarian): > 100 µM | TGI (KM12 colon): > 100 µM | TGI (OVCAR-3 ovarian): > 100 µM | TGI (U251 CNS): > 100 µM | TGI (EKVX NSCLC): > 100 µM
